Assay results published in patent US10925856B2, “Methods and compositions involving bucindolol for the treatment of atrial fibrillation” (priority 2018, dated 2021).
Where two headings read alike, the source gives them in different places.

[1] = CYP2D6 Extensive/Ultra Metabolizer
[2] = Drug Titration Period (first 42 days)
[3] = treatment-emergent AE, total follow-up

COCCc1ccc(OCC(O)CNC(C)C)cc1 (stereo not drawn) [metoprolol, metoprolol succinate, reference compound]
HEADACHE, % of patients [1]: (4.5%)
HEADACHE, number of patients [1]: 5
HYPOTENSION, % of patients [1]: (8.1%)
HYPOTENSION, number of patients [1]: 9
IMMUNE SYSTEM DISORDERS, % of patients [1]: (0.9%)
IMMUNE SYSTEM DISORDERS, number of patients [1]: 1
INFECTIONS AND INFESTATIONS, % of patients [1]: (20.7%)
INFECTIONS AND INFESTATIONS, number of patients [1]: 23
INFLUENZA, % of patients [1]: (2.7%)
INFLUENZA, number of patients [1]: 3
HEADACHE, % of patients (CYP2D6 Poor Metabolizer): (0.0%)
HEADACHE, number of patients (CYP2D6 Poor Metabolizer): 0
INFECTIONS AND INFESTATIONS, % of patients (CYP2D6 Poor Metabolizer): (12.5%)
INFECTIONS AND INFESTATIONS, number of patients (CYP2D6 Poor Metabolizer): 1
INFLUENZA, % of patients (CYP2D6 Poor Metabolizer): (0.0%)
INFLUENZA, number of patients (CYP2D6 Poor Metabolizer): 0
UPPER RESPIRATORY TRACT INFECTION, % of patients (CYP2D6 Poor Metabolizer): (0.0%)
UPPER RESPIRATORY TRACT INFECTION, number of patients (CYP2D6 Poor Metabolizer): 0
AC mortality or CV hosp or treatment disc. due to AE, patients N (%) [2]: 6 (5%)
All-cause mortality, patients N (%) [2]: 1 (1%)
AEs leading to study withdrawal (excluding death) (GENETIC-AF, all randomized patients): 1.5%
Adverse event leading to death, patients N (%) (Total Study On-Drug Period): 2.3%
Adverse events leading to study withdrawal (excluding death), patients N (%) (Total Study On-Drug Period): 2 (1.5%)
Adverse event leading to death, patients N (%) (Total Study On-Drug Period, listed as Metoprolol): 3 (2.3%)
AE SOC frequency: Cardiac Disorders (human, in vivo): 26.3%
AE SOC frequency: Eye Disorders (human, in vivo): 3.0%
AE SOC frequency: Gastrointestinal Disorders (human, in vivo): 18.0%
AE SOC frequency: Hepatobiliary Disorders (human, in vivo): 2.3%
AE SOC frequency: Infections and Infestations (human, in vivo): 21.8%
AE SOC frequency: Investigators (human, in vivo): 7.5%
AE SOC frequency: Metabolism and Nutrition Disorders (human, in vivo): 12.0%
AE SOC frequency: Musculoskeletal and Connective Tissue Disorders (human, in vivo): 15.0%
AE SOC frequency: Neoplasms Benign Malignant and Unspecified (human, in vivo): 6.8%
AE SOC frequency: Renal and Urinary Disorders (human, in vivo): 9.8%
AE SOC frequency: Respiratory, Thoracic and Mediastinal Disorders (human, in vivo): 10.5%
AE frequency: arthralgia (human, in vivo): 3.8%
AE frequency: cardiac failure (human, in vivo): 3.8%
AE frequency: chronic kidney disease (human, in vivo): 0.8%
AE frequency: constipation (human, in vivo): 1.5%
AE frequency: epistaxis (human, in vivo): 0.0%
AE frequency: hematuria (human, in vivo): 0.0%
AE frequency: hypomagnesaemia (human, in vivo): 0.0%
AE frequency: hypotension (human, in vivo): 7.5%
AE frequency: pneumonia (human, in vivo): 0.8%
AE frequency: upper respiratory tract infection (human, in vivo): 4.5%
AEs leading to permanent study drug discontinuation (human, in vivo): 8.3%
AEs: Bradycardia (human, in vivo): 12.0%
AEs: Stroke (99% on OACs) (human, in vivo): 0.0%
Adverse event possible/probably related to study drug, patients N (%) (human, in vivo): 40 (30.1%)
Adverse events leading to permanent study drug discontinuation, patients N (%) (human, in vivo): 11 (8.3%)
Adverse events related to neoplasm, patients N (%) (human, in vivo): 9 (6.8%)
Any bradycardia event, % of patients (human, in vivo): (12%)
Any bradycardia event, number of patients (human, in vivo): 16
Any bradycardia, % of patients (human, in vivo): (12%)
Any bradycardia, number of patients (human, in vivo): 16
Any serious adverse event, % of patients (human, in vivo): (20%)
Any serious adverse event, number of patients (human, in vivo): 26
Asymptomatic bradycardia event, % of patients (human, in vivo): (8%)
Asymptomatic bradycardia event, number of patients (human, in vivo): 10
Asymptomatic bradycardia, % of patients (human, in vivo): (8%)
Asymptomatic bradycardia, number of patients (human, in vivo): 10
Bradycardia AEs (human, in vivo): 3 (38%)
Bradycardia event leading to study drug discontinuation, % of patients (human, in vivo): (1%)
Bradycardia event leading to study drug discontinuation, number of patients (human, in vivo): 1
Bradycardia event leading to study drug dose interruption, % of patients (human, in vivo): (2%)
Bradycardia event leading to study drug dose interruption, number of patients (human, in vivo): 2
Bradycardia event leading to study drug dose reduction, % of patients (human, in vivo): (8%)
Bradycardia event leading to study drug dose reduction, number of patients (human, in vivo): 11
CAD, % of patients (human, in vivo): (1%)
CAD, number of patients (human, in vivo): 1
Cardiac AE rate (heart failure or bradycardia events) (human, in vivo): 50%
Cardiovascular serious adverse event, % of patients (human, in vivo): (10%)
Cardiovascular serious adverse event, number of patients (human, in vivo): 13
Catheterization, % of patients (human, in vivo): (1%)
Catheterization, number of patients (human, in vivo): 1
EPISTAXIS, % of patients (human, in vivo): (0.0%)
EPISTAXIS, number of patients (human, in vivo): 0
HAEMATURIA, % of patients (human, in vivo): (0.0%)
HAEMATURIA, number of patients (human, in vivo): 0
HYPOMAGNESAEMIA, % of patients (human, in vivo): (0.0%)
HYPOMAGNESAEMIA, number of patients (human, in vivo): 0
Heart block (Mobitz I/II, 2:1, or 3rd degree), % of patients (human, in vivo): (0%)
Heart block (Mobitz I/II, 2:1, or 3rd degree), number of patients (human, in vivo): 0
ICD Implantation, % of patients (human, in vivo): (5%)
ICD Implantation, number of patients (human, in vivo): 7
Incidence of Cr > 3.0, % of patients (human, in vivo): (1%)
Incidence of Cr > 3.0, number of patients (human, in vivo): 1
Incidence of bilirubin > 2.0, % of patients (human, in vivo): (2%)
Incidence of bilirubin > 2.0, number of patients (human, in vivo): 2
Non-CNS Embolism, % of patients (human, in vivo): (0%)
Non-CNS Embolism, number of patients (human, in vivo): 0
Pacemaker Implantation, % of patients (human, in vivo): (2%)
Pacemaker Implantation, number of patients (human, in vivo): 3
SAE SOC frequency: Infections and Infestations (human, in vivo): 3.0%
SAE SOC frequency: Renal and Urinary Disorders (human, in vivo): 1.5%
SAE SOC frequency: Respiratory, Thoracic and Mediastinal Disorders (human, in vivo): 1.5%
SAE frequency: Cardiac Failure (human, in vivo): 2.3%
SAE frequency: Cardiac Failure Congestive (human, in vivo): 5.3%
SAEs: Any cardiovascular event (human, in vivo): 9.8%
Stroke, % of patients (human, in vivo): (0%)
Stroke, number of patients (human, in vivo): 0
Symptomatic bradycardia event, % of patients (human, in vivo): (5%)
Symptomatic bradycardia event, number of patients (human, in vivo): 7
Symptomatic bradycardia, % of patients (human, in vivo): (5%)
Symptomatic bradycardia, number of patients (human, in vivo): 7
TIA, % of patients (human, in vivo): (1%)
TIA, number of patients (human, in vivo): 1
UPPER RESPIRATORY TRACT INFECTION, % of patients (human, in vivo): (4.5%)
UPPER RESPIRATORY TRACT INFECTION, number of patients (human, in vivo): 5
All-cause hospitalization, patients N (%) (human, in vivo, 42 days): 9 (7%)
Any serious adverse event, patients N (%) (human, in vivo, 42 days): 10 (8%)
Asymptomatic bradycardia, patients N (%) (human, in vivo, 42 days): 4 (3%)
Cardiovascular hospitalization, patients N (%) (human, in vivo, 42 days): 4 (3%)
Heart failure hospitalization, patients N (%) (human, in vivo, 42 days): 4 (3%)
Symptomatic bradycardia, patients N (%) (human, in vivo, 42 days): 3 (2%)
Treatment-related cardiovascular serious adverse event, patients N (%) (human, in vivo, 42 days): 0 (0%)
Treatment-related serious adverse event, patients N (%) (human, in vivo, 42 days): 0 (0%)
Ablation, % of patients (in vivo): (14%)
Ablation, number of patients (in vivo): 18
Additional ECV After Successful SR, % of patients (in vivo): (23%)
Additional ECV After Successful SR, number of patients (in vivo): 30
Anti-Arrhythmic Therapy, % of patients (in vivo): (33%)
Anti-Arrhythmic Therapy, number of patients (in vivo): 44
Appropriate Firing of on ICD, % of patients (in vivo): (1%)
Appropriate Firing of on ICD, number of patients (in vivo): 1
Rate Control Therapy, % of patients (in vivo): (11%)
Rate Control Therapy, number of patients (in vivo): 15
TIA, patients (in vivo): One
HEADACHE, % of patients [3]: (3.8%)
HEADACHE, number of patients [3]: 5
INFECTIONS AND INFESTATIONS, % of patients [3]: (21.8%)
INFECTIONS AND INFESTATIONS, number of patients [3]: 29
INFLUENZA, % of patients [3]: (2.3%)
INFLUENZA, number of patients [3]: 3
UPPER RESPIRATORY TRACT INFECTION, % of patients [3]: (4.5%)
UPPER RESPIRATORY TRACT INFECTION, number of patients [3]: 6
INFECTIONS AND INFESTATIONS, % of patients (treatment-emergent serious AE): (3.0%)
INFECTIONS AND INFESTATIONS, number of patients (treatment-emergent serious AE): 4
